Assay results from the OligoGym collection.
HELM strings list units from the 5' end as sugar, base in round brackets, then linkage (d deoxyribose, r ribose, m 2'-O-methyl, p phosphodiester). Strings are as the collection lists them, not checked against the first reports. ss, as = sense and antisense strand; [lna] = locked nucleic acid (LNA); [hna] = hexitol nucleic acid; [fl2r] = 2'-fluoro

Conditions: siRNA
Note: test system not given here.

Substance	target mRNA knockdown [%]
RNA1{r(G)p.r(A)p.r(C)p.r(G)p.[hna](U)p.r(A)p.r(A)p.[hna](A)p.r(C)p.r(G)p.[hna](G)p.r(C)p.r(C)p.[hna](A)p.r(C)p.r(A)p.r(A)p.r(G)p.[hna](U)p.[hna](U)p.d(T)}|RNA2{r(A)p.r(C)p.[hna](U)p.r(U)p.r(G)p.r(U)p.r(G)p.r(G)p.r(C)p.r(C)p.r(G)p.r(U)p.r(U)p.r(U)p.r(A)p.r(C)p.r(G)p.[hna](U)p.[hna](C)p.[hna](G)p.d(T)}$$$RNA1{StrandType:ss}|RNA2{StrandType:as}$	51.4
RNA1{r(G)p.r(A)p.r(C)p.r(G)p.[hna](U)p.r(A)p.r(A)p.[hna](A)p.r(C)p.r(G)p.[hna](G)p.r(C)p.r(C)p.[hna](A)p.r(C)p.r(A)p.r(A)p.r(G)p.[hna](U)p.[hna](U)p.d(T)}|RNA2{r(A)p.r(C)p.r(U)p.r(U)p.r(G)p.r(U)p.r(G)p.r(G)p.r(C)p.r(C)p.r(G)p.r(U)p.r(U)p.r(U)p.r(A)p.r(C)p.r(G)p.[hna](U)p.[hna](C)p.[hna](G)p.d(T)}$$$RNA1{StrandType:ss}|RNA2{StrandType:as}$	74.2
RNA1{r(G)p.r(A)p.r(C)p.r(G)p.[hna](U)p.r(A)p.r(A)p.[hna](A)p.r(C)p.r(G)p.[hna](G)p.r(C)p.r(C)p.[hna](A)p.r(C)p.r(A)p.r(A)p.r(G)p.[hna](U)p.[hna](U)p.d(T)}|RNA2{r(A)p.r(C)p.r(U)p.r(U)p.r(G)p.r(U)p.r(G)p.r(G)p.r(C)p.r(C)p.r(G)p.r(U)p.r(U)p.r(U)p.r(A)p.r(C)p.r(G)p.r(U)p.r(C)p.r(G)p.r(C)}$$$RNA1{StrandType:ss}|RNA2{StrandType:as}$	87.4
RNA1{r(G)p.r(A)p.r(C)p.r(G)p.[hna](U)p.r(A)p.r(A)p.[hna](A)p.r(C)p.r(G)p.[hna](G)p.r(C)p.r(C)p.[hna](A)p.r(C)p.r(A)p.r(A)p.r(G)p.[hna](U)p.r(U)p.d(T)}|RNA2{r(A)p.[hna](C)p.r(U)p.r(U)p.r(G)p.r(U)p.r(G)p.r(G)p.[hna](C)p.r(C)p.r(G)p.r(U)p.r(U)p.r(U)p.r(A)p.r(C)p.r(G)p.[hna](U)p.[hna](C)p.[hna](G)p.d(T)}$$$RNA1{StrandType:ss}|RNA2{StrandType:as}$	0
RNA1{r(G)p.r(A)p.r(C)p.r(G)p.[hna](U)p.r(A)p.r(A)p.[hna](A)p.r(C)p.r(G)p.[hna](G)p.r(C)p.r(C)p.[hna](A)p.r(C)p.r(A)p.r(A)p.r(G)p.[hna](U)p.r(U)p.d(T)}|RNA2{r(A)p.r(C)p.[lna](T)p.r(U)p.r(G)p.[lna](T)p.r(G)p.r(G)p.r(C)p.r(C)p.r(G)p.r(U)p.r(U)p.[lna](T)p.r(A)p.r(C)p.r(G)p.[lna](T)p.r(C)p.[lna](G)p.[lna](C)}$$$RNA1{StrandType:ss}|RNA2{StrandType:as}$	7.9
RNA1{r(G)p.r(A)p.r(C)p.r(G)p.[hna](U)p.r(A)p.r(A)p.[hna](A)p.r(C)p.r(G)p.[hna](G)p.r(C)p.r(C)p.[hna](A)p.r(C)p.r(A)p.r(A)p.r(G)p.[hna](U)p.r(U)p.d(T)}|RNA2{r(A)p.r(C)p.r(U)p.r(U)p.r(G)p.r(U)p.r(G)p.r(G)p.r(C)p.r(C)p.r(G)p.r(U)p.r(U)p.r(U)p.r(A)p.r(C)p.r(G)p.r(U)p.[lna](C)p.[lna](G)p.r(C)}$$$RNA1{StrandType:ss}|RNA2{StrandType:as}$	83.9
RNA1{r(G)p.r(A)p.r(C)p.r(G)p.[hna](U)p.r(A)p.r(A)p.[hna](A)p.r(C)p.r(G)p.[hna](G)p.r(C)p.r(C)p.[hna](A)p.r(C)p.r(A)p.r(A)p.r(G)p.r(U)p.[hna](U)p.d(T)}|RNA2{[fl2r](A)p.m(C)p.[fl2r](U)p.m(U)p.[fl2r](G)p.m(U)p.[fl2r](G)p.m(G)p.[fl2r](C)p.m(C)p.[fl2r](G)p.m(U)p.[fl2r](U)p.m(U)p.[fl2r](A)p.m(C)p.[fl2r](G)p.m(U)p.[fl2r](C)p.m(G)p.[fl2r](C)}$$$RNA1{StrandType:ss}|RNA2{StrandType:as}$	13.2
RNA1{r(G)p.r(A)p.r(C)p.r(G)p.[hna](U)p.r(A)p.r(A)p.[hna](A)p.r(C)p.r(G)p.[hna](G)p.r(C)p.r(C)p.[hna](A)p.r(C)p.r(A)p.r(A)p.r(G)p.r(U)p.[hna](U)p.d(T)}|RNA2{r(A)p.[hna](C)p.r(U)p.r(U)p.r(G)p.r(U)p.r(G)p.r(G)p.r(C)p.r(C)p.r(G)p.r(U)p.r(U)p.r(U)p.r(A)p.r(C)p.r(G)p.[hna](U)p.[hna](C)p.[hna](G)p.d(T)}$$$RNA1{StrandType:ss}|RNA2{StrandType:as}$	11.9
RNA1{r(G)p.r(A)p.r(C)p.r(G)p.[hna](U)p.r(A)p.r(A)p.[hna](A)p.r(C)p.r(G)p.[hna](G)p.r(C)p.r(C)p.[hna](A)p.r(C)p.r(A)p.r(A)p.r(G)p.r(U)p.[hna](U)p.d(T)}|RNA2{r(A)p.m(C)p.r(U)p.r(U)p.r(G)p.r(U)p.r(G)p.r(G)p.r(C)p.r(C)p.r(G)p.r(U)p.r(U)p.r(U)p.r(A)p.r(C)p.r(G)p.r(U)p.r(C)p.r(G)p.r(C)}$$$RNA1{StrandType:ss}|RNA2{StrandType:as}$	38
RNA1{r(G)p.r(A)p.r(C)p.r(G)p.[hna](U)p.r(A)p.r(A)p.[hna](A)p.r(C)p.r(G)p.[hna](G)p.r(C)p.r(C)p.[hna](A)p.r(C)p.r(A)p.r(A)p.r(G)p.r(U)p.[hna](U)p.d(T)}|RNA2{r(A)p.r(C)p.[hna](U)p.r(U)p.r(G)p.r(U)p.r(G)p.r(G)p.r(C)p.r(C)p.r(G)p.r(U)p.r(U)p.r(U)p.r(A)p.r(C)p.r(G)p.[hna](U)p.[hna](C)p.[hna](G)p.d(T)}$$$RNA1{StrandType:ss}|RNA2{StrandType:as}$	25.2
RNA1{r(G)p.r(A)p.r(C)p.r(G)p.[hna](U)p.r(A)p.r(A)p.[hna](A)p.r(C)p.r(G)p.[hna](G)p.r(C)p.r(C)p.[hna](A)p.r(C)p.r(A)p.r(A)p.r(G)p.r(U)p.[hna](U)p.d(T)}|RNA2{r(A)p.r(C)p.r(U)p.r(U)p.r(G)p.r(U)p.r(G)p.r(G)p.r(C)p.r(C)p.r(G)p.r(U)p.r(U)p.r(U)p.r(A)p.r(C)p.r(G)p.[hna](U)p.[hna](C)p.[hna](G)p.d(T)}$$$RNA1{StrandType:ss}|RNA2{StrandType:as}$	48.7
RNA1{r(G)p.r(A)p.r(C)p.r(G)p.[hna](U)p.r(A)p.r(A)p.[hna](A)p.r(C)p.r(G)p.[hna](G)p.r(C)p.r(C)p.[hna](A)p.r(C)p.r(A)p.r(A)p.r(G)p.r(U)p.r(U)p.d(T)}|RNA2{r(A)p.[hna](C)p.r(U)p.r(U)p.r(G)p.r(U)p.r(G)p.r(G)p.[hna](C)p.r(C)p.r(G)p.r(U)p.r(U)p.r(U)p.r(A)p.r(C)p.r(G)p.[hna](U)p.[hna](C)p.[hna](G)p.d(T)}$$$RNA1{StrandType:ss}|RNA2{StrandType:as}$	0
RNA1{r(G)p.r(A)p.r(C)p.r(G)p.[hna](U)p.r(A)p.r(A)p.[hna](A)p.r(C)p.r(G)p.[hna](G)p.r(C)p.r(C)p.[hna](A)p.r(C)p.r(A)p.r(A)p.r(G)p.r(U)p.r(U)p.d(T)}|RNA2{r(A)p.r(C)p.[lna](T)p.r(U)p.r(G)p.[lna](T)p.r(G)p.r(G)p.r(C)p.r(C)p.r(G)p.r(U)p.r(U)p.[lna](T)p.r(A)p.r(C)p.r(G)p.[lna](T)p.r(C)p.[lna](G)p.[lna](C)}$$$RNA1{StrandType:ss}|RNA2{StrandType:as}$	8.9
RNA1{r(G)p.r(A)p.r(C)p.r(G)p.[hna](U)p.r(A)p.r(A)p.[hna](A)p.r(C)p.r(G)p.[hna](G)p.r(C)p.r(C)p.[hna](A)p.r(C)p.r(A)p.r(A)p.r(G)p.r(U)p.r(U)p.d(T)}|RNA2{r(A)p.r(C)p.r(U)p.r(U)p.r(G)p.r(U)p.r(G)p.r(G)p.r(C)p.r(C)p.r(G)p.r(U)p.r(U)p.r(U)p.r(A)p.r(C)p.r(G)p.r(U)p.[lna](C)p.[lna](G)p.r(C)}$$$RNA1{StrandType:ss}|RNA2{StrandType:as}$	77.3
RNA1{r(G)p.r(A)p.r(C)p.r(G)p.[hna](U)p.r(A)p.r(A)p.[hna](A)p.r(C)p.r(G)p.[hna](G)p.r(C)p.r(C)p.[hna](A)p.r(C)p.r(A)p.r(A)p.r(G)p.r(U)p.r(U)p.d(T)}|RNA2{r(A)p.r(C)p.r(U)p.r(U)p.r(G)p.r(U)p.r(G)p.r(G)p.r(C)p.r(C)p.r(G)p.r(U)p.r(U)p.r(U)p.r(A)p.r(C)p.r(G)p.r(U)p.r(C)p.r(G)p.r(C)}$$$RNA1{StrandType:ss}|RNA2{StrandType:as}$	81.2
RNA1{r(G)p.r(A)p.r(C)p.r(G)p.r(U)p.r(A)p.r(A)p.r(A)p.r(C)p.r(G)p.r(G)p.r(C)p.r(C)p.r(A)p.r(C)p.r(A)p.r(A)p.r(G)p.[hna](U)p.[hna](U)p.r(C)}|RNA2{[fl2r](A)p.m(C)p.[fl2r](U)p.m(U)p.[fl2r](G)p.m(U)p.[fl2r](G)p.m(G)p.[fl2r](C)p.m(C)p.[fl2r](G)p.m(U)p.[fl2r](U)p.m(U)p.[fl2r](A)p.m(C)p.[fl2r](G)p.m(U)p.[fl2r](C)p.m(G)p.[fl2r](C)}$$$RNA1{StrandType:ss}|RNA2{StrandType:as}$	45.8
RNA1{r(G)p.r(A)p.r(C)p.r(G)p.r(U)p.r(A)p.r(A)p.r(A)p.r(C)p.r(G)p.r(G)p.r(C)p.r(C)p.r(A)p.r(C)p.r(A)p.r(A)p.r(G)p.[hna](U)p.[hna](U)p.r(C)}|RNA2{r(A)p.m(C)p.r(U)p.r(U)p.r(G)p.r(U)p.r(G)p.r(G)p.r(C)p.r(C)p.r(G)p.r(U)p.r(U)p.r(U)p.r(A)p.r(C)p.r(G)p.r(U)p.r(C)p.r(G)p.r(C)}$$$RNA1{StrandType:ss}|RNA2{StrandType:as}$	57
RNA1{r(G)p.r(A)p.r(C)p.r(G)p.r(U)p.r(A)p.r(A)p.r(A)p.r(C)p.r(G)p.r(G)p.r(C)p.r(C)p.r(A)p.r(C)p.r(A)p.r(A)p.r(G)p.[hna](U)p.[hna](U)p.r(C)}|RNA2{r(A)p.r(C)p.[lna](T)p.r(U)p.r(G)p.[lna](T)p.r(G)p.r(G)p.r(C)p.r(C)p.r(G)p.r(U)p.r(U)p.[lna](T)p.r(A)p.r(C)p.r(G)p.[lna](T)p.r(C)p.[lna](G)p.[lna](C)}$$$RNA1{StrandType:ss}|RNA2{StrandType:as}$	13.3
RNA1{r(G)p.r(A)p.r(C)p.r(G)p.r(U)p.r(A)p.r(A)p.r(A)p.r(C)p.r(G)p.r(G)p.r(C)p.r(C)p.r(A)p.r(C)p.r(A)p.r(A)p.r(G)p.[hna](U)p.[hna](U)p.r(C)}|RNA2{r(A)p.r(C)p.r(U)p.r(U)p.r(G)p.r(U)p.r(G)p.r(G)p.r(C)p.r(C)p.r(G)p.r(U)p.r(U)p.r(U)p.r(A)p.r(C)p.r(G)p.r(U)p.[lna](C)p.[lna](G)p.r(C)}$$$RNA1{StrandType:ss}|RNA2{StrandType:as}$	83.8
